Legend:
DIGSA = experiment: greenhouse test, pre-emergence treatment; assay type: in vivo, Digitaria sanguinalis
Description: (§1) The culture containers used were plastic pots containing loamy sand with approximately 3.0% of humus as substrate. The seeds of the test plants were sown separately for each species.
(§2) For the pre-emergence treatment, the active compounds, suspended or emulsified in water, were applied directly after sowing by means of finely distributing nozzles. The containers were irrigated gently to promote germination and growth and subsequently covered with transparent plastic hoods until the plants had rooted. This cover caused uniform germination of the test plants unless this was adversely affected by the active compounds.
(§3) Depending on the species, the plants were kept at 10-25° C. and 20-35° C., respectively. The test period extended over 2 to 4 weeks. During this time, the plants were tended and their response to the individual treatments was evaluated.
(§4) Evaluation was carried out using a scale from 0 to 100. 100 means no emergence of the plants, or complete destruction of at least the above-ground parts, and 0 means no damage or normal course of growth. Good herbicidal activity is given at values of at least 70, and very good herbicidal activity is given at values of at least 85.
(§5) The respective stated components A and B, and if appropriate, C were formulated as a 5% by weight or 10% by weight strength emulsion concentrate or a commercially available formulation of component B was used and, with addition of the amount of solvent system, introduced into the spray liquor used for applying the active compound. In the examples, the solvent used was water.
(§6) The test period extended over 20 or 21 days. During this time, the plants were tended, and their reactions to the treatment with active compound was monitored.
(§7) What was evaluated was the damage by the chemical compositions using a scale of from 0 to 100%, in comparison to the untreated control plants. 0 means no damage, and 100 means complete destruction of the plants.
(§8) In the examples below, using the method of S. R. Colby (1967) “Calculating synergistic and antagonistic responses of herbicide combinations”, Weeds 15, p. 22 ff., the value E, which is expected if the activity of the individual active compounds is only additive, was calculated.
(§9) where X=percent activity using active compound A at an application rate a; Y=percent activity using active compound B at an application rate b; E=expected activity (in %) by A+B at application rates a+b.
(§10) If the value found in experiments is higher than the value E calculated according to Colby, a synergistic effect is present.

SETLU = experiment: greenhouse test, pre-emergence treatment; assay type: in vivo, Setaria glauca
Description: as §1, §2, §3, §4, §5, §6, §7, §8, §9, §10

SOLNI = experiment: greenhouse test, pre-emergence treatment; assay type: in vivo, Solanum nigrum L.
Description: as §1, §2, §3, §4, §5, §6, §7, §8, §9, §10

BRAPL = experiment: greenhouse test, pre-emergence treatment; assay type: in vivo, Brachiaria plantaginea
Description: as §1, §2, §3, §4, §5, §6, §7, §8, §9, §10

SETFA = experiment: greenhouse test, pre-emergence treatment; assay type: in vivo, Setaria faberi
Description: as §1, §2, §3, §4, §5, §6, §7, §8, §9, §10

ECHCG = experiment: greenhouse test, pre-emergence treatment; assay type: in vivo, Echinochloa crus-galli; details: Use Example 23
Description: as §1, §2, §3, §4, §5, §6, §7, §8, §9, §10

ALOMY [1] = experiment: greenhouse test, pre-emergence treatment; assay type: in vivo, Alopecurus myosuroides
Description: as §1, §2, §3, §4, §5, §6, §7, §8, §9, §10

PHACA = experiment: greenhouse test, pre-emergence treatment; assay type: in vivo, Phalaris canariensis; details: Use Example 4
Description: as §1, §2, §3, §4, §5, §6, §7, §8, §9, §10

ALOMY [2] = experiment: greenhouse test, post-emergence treatment; assay type: in vivo, Alopecurus myosuroides; details: Use Example 17
Procedure: as §1
(§11) For the post-emergence treatment, the test plants were grown to a plant height of from 3 to 15 cm, depending on the plant habit, and only then treated with the active compounds which had been suspended or emulsified in water. To this end, the test plants were either sown directly and grown in the same containers, or they were first grown separately as seedlings and transplanted into the test containers a few days prior to treatment.
as §3, §4, §5, §6, §7, §8, §9, §10

SETVI = experiment: greenhouse test, post-emergence treatment; assay type: in vivo, Setaria viridis; details: Use Example 17
Procedure: as §1, §11, §3, §4, §5, §6, §7, §8, §9, §10

LOLMU [3] = experiment: greenhouse test, post-emergence treatment; assay type: in vivo, Lolium multiflorum; details: Use Example 17
Procedure: as §1, §11, §3, §4, §5, §6, §7, §8, §9, §10

LOLMU [4] = experiment: greenhouse test, pre-emergence treatment; assay type: in vivo, Lolium multiflorum; details: 250 g/ha a.s., Use Example 10
Description: as §1, §2, §3, §4, §5, §6, §7, §8, §9, §10

[5] = 31.25 g/ha a.s., Use Example 14
[6] = 31.25 g/ha a.s., Use Example 23

## COC[C@H](C)N(C(=O)CCl)c1c(C)csc1C [Dimethenamide-P, reference compound]
DIGSA; 16 g/ha a.s., Use Example 23
  Herbicidal action in % after 20 days against DIGSA: 70%
DIGSA; [5]
  Herbicidal action in % after 20 days against DIGSA: 90%
DIGSA; [6]
  Herbicidal action in % after 20 days against DIGSA: 85%
SETLU; [5]
  Herbicidal action in % after 20 days against SETLU: 65%
SOLNI; 16 g/ha a.s., Use Example 23
  Herbicidal action in % after 20 days against SOLNI: 60%
SOLNI; [6]
  Herbicidal action in % after 20 days against SOLNI: 80%
BRAPL; 16 g/ha a.s., Use Example 23
  Herbicidal action in % after 20 days against BRAPL: 40%
BRAPL; [6]
  Herbicidal action in % after 20 days against BRAPL: 50%
SETFA; [5]
  Herbicidal action in % after 20 days against SETFA: 95%
ECHCG; 16 g/ha a.s.
  Herbicidal action in % after 20 days against ECHCG: 50%
ECHCG; 31.25 g/ha a.s.
  Herbicidal action in % after 20 days against ECHCG: 85%

## CC(C)c1ccc(NC(=O)N(C)C)cc1 [Isoproturon, reference compound]
ALOMY [1]; 375 g/ha a.s., Use Example 4
  Herbicidal action in % after 20 days against ALOMY: 90%
ALOMY [1]; 750 g/ha a.s., Use Example 4
  Herbicidal action in % after 20 days against ALOMY: 98%
PHACA; 375 g/ha a.s.
  Herbicidal action in % after 20 days against PHACA: 55%
PHACA; 750 g/ha a.s.
  Herbicidal action in % after 20 days against PHACA: 75%

## CCC(CC)Nc1c([N+](=O)[O-])cc(C)c(C)c1[N+](=O)[O-] [Pendimethalin, reference compound]
ALOMY [2]; 500 g/ha a.s.
  Herbicidal action in % after 20 days against ALOMY: 65%
ALOMY [2]; 1000 g/ha a.s.
  Herbicidal action in % after 20 days against ALOMY: 75%
SETVI; 500 g/ha a.s.
  Herbicidal action in % after 20 days against SETVI: 90%
SETVI; 1000 g/ha a.s.
  Herbicidal action in % after 20 days against SETVI: 95%
LOLMU [3]; 500 g/ha a.s.
  Herbicidal action in % after 20 days against LOLMU: 70%
LOLMU [3]; 1000 g/ha a.s.
  Herbicidal action in % after 20 days against LOLMU: 75%
ALOMY [1]; 250 g/ha a.s., Use Example 10
  Herbicidal action in % after 20 days against ALOMY: 30%
LOLMU [4]
  Herbicidal action in % after 20 days against LOLMU: 0%

## CS(=O)(=O)c1cc(C(F)(F)F)ccc1C(=O)c1cnoc1C1CC1 [Isoxaflutol, Isoxaflutole]
DIGSA; 13 g/ha a.s., Use Example 19
  Herbicidal action in % after 20 days against DIGSA: 75%
DIGSA; 25 g/ha a.s., Use Example 9
  Herbicidal action in % after 21 days against DIGSA: 98%
DIGSA; 25 g/ha a.s., Use Example 19
  Herbicidal action in % after 20 days against DIGSA: 95%
SETLU; 25 g/ha a.s., Use Example 9
  Herbicidal action in % after 21 days against SETLU: 75%
SOLNI; 13 g/ha a.s., Use Example 19
  Herbicidal action in % after 20 days against SOLNI: 85%
SOLNI; 25 g/ha a.s., Use Example 19
  Herbicidal action in % after 20 days against SOLNI: 98%
BRAPL; 13 g/ha a.s., Use Example 19
  Herbicidal action in % after 20 days against BRAPL: 75%
BRAPL; 25 g/ha a.s., Use Example 9
  Herbicidal action in % after 21 days against BRAPL: 90%
BRAPL; 25 g/ha a.s., Use Example 19
  Herbicidal action in % after 20 days against BRAPL: 80%
SETFA; 13 g/ha a.s., Use Example 19
  Herbicidal action in % after 20 days against SETFA: 40%
SETFA; 25 g/ha a.s., Use Example 19
  Herbicidal action in % after 20 days against SETFA: 55%
